Measurements published in patent US10851102B2, “Imidazole and triazole containing bicyclic compounds as JAK inhibitors” (THERAVANCE BIOPHARMA R&D IP, LLC, priority 2019, dated 2020).

Legend:
[1] = test system: IL-2 stimulated pSTAT5 in Tall-1 T cells (JAK3); test: Cellular JAK3 potency assay: inhibition of IL-2 stimulated pSTAT5 in Tall-1 T cells; assay type: cell-based; conditions: IL-2 300 ng/ml, pSTAT5 AlphaLisa, Tall-1 human T cell line; read-out: Tall-1 (pIC50) (converted)
Protocol: Assay 2: Cellular JAK3 Potency Assay: Inhibition of IL-2 Stimulated pSTAT5 in Tall-1 T Cells
The potency of test compounds for inhibition of interleukin-2 (IL-2) stimulated STATS phosphorylation was measured in the Tall-1 human T cell line (DSMZ) using AlphaLisa. Because IL-2 signals through JAK3, this assay provides a measure of JAK3 cellular potency.
(§1) Phosphorylated STATS was measured via the AlphaLISA SureFire Ultra pSTAT5 (Tyr694/699) kit (PerkinElmer).
Human T cells from the Tall-1 cell line were cultured in a 37° C., 5% CO2 humidified incubator in RPMI (Life Technologies) supplemented with 15% Heat Inactivated Fetal Bovine Serum (FBS, Life Technologies), 2 mM Glutamax (Life Technologies), 25 mM HEPES (Life Technologies) and 1× Pen/Strep (Life Technologies). Compounds were serially diluted in DMSO and dispensed acoustically to empty wells. Assay media (phenol red-free DMEM (Life Technologies) supplemented with 10% FBS (ATCC)) was dispensed (4 μL/well) and plates shaken at 900 rpm for 10 mins. Cells were seeded at 45,000 cells/well in assay media (4 μL/well), and incubated at 37° C., 5% CO2 for 1 hour, followed by the addition of IL-2 (R&D Systems; final concentration 300 ng/ml) in pre-warmed assay media ([…]) for 30 minutes. After cytokine stimulation, cells were lysed with 6 ul of 3× AlphaLisa Lysis Buffer (PerkinElmer) containing 1× PhosStop and Complete tablets (Roche). The lysate was shaken at 900 rpm for 10 minutes at room temperature (RT). Phosphorylated STATS was measured via the pSTAT5 AlphaLisa kit (PerkinElmer). Freshly prepared acceptor bead mixture was dispensed onto lysate (5 μL) under green filtered <100 lux light. Plates were shaken at 900 rpm for 2 mins, briefly spun down, and incubated for 2 hrs at RT in the dark. Donor beads were dispensed (5 μL) under green filtered <100 lux light. Plates were shaken at 900 rpm for 2 minutes, briefly spun down, and incubated overnight at RT in the dark. Luminescence was measured with excitation at 689 nm and emission at 570 nm using an EnVision plate reader (PerkinElmer) under green filtered <100 lux light.
To determine the inhibitory potency of test compounds in response to IL-2, the average emission intensity of beads bound to pSTAT5 was measured in a human T cell line. IC50 values were determined from analysis of the inhibition curves of signal intensity versus compound concentration. Data are expressed as pIC50 (negative decadic logarithm IC50) values (mean±standard deviation).

JAK1 = JAK1 (Homo sapiens (Human), UniProt P23458); test: Biochemical JAK and Tyk2 kinase assays (LanthaScreen): JAK1; conditions: 1 h pre-incubation, ATP at Km; pIC50 converted to pKi by Cheng-Prusoff
Protocol: (§2) Assay 1: Biochemical JAK and Tyk2 Kinase Assays
(§3) A panel of four LanthaScreen JAK biochemical assays (JAK1, 2, 3 and Tyk2) were carried in a common kinase reaction buffer (50 mM HEPES, pH 7.5, 0.01% Brij-35, 10 mM MgCl2, and 1 mM EGTA). Recombinant GST-tagged JAK enzymes and a GFP-tagged STAT1 peptide substrate were obtained from Life Technologies.
(§4) Serially or discretely diluted compounds were pre-incubated with each of the four JAK enzymes and the substrate in white 384-well microplates (Corning) at ambient temperature for 1 h. ATP was subsequently added to initiate the kinase reactions in 10 μL total volume, with 1% DMSO. […] Kinase reactions were allowed to proceed for 1 hour at ambient temperature before a 10 μL preparation of EDTA (10 mM final concentration) and Tb-anti-pSTAT1 (pTyr701) antibody (Life Technologies, 2 nM final concentration) in TR-FRET dilution buffer (Life Technologies) was added. The plates were allowed to incubate at ambient temperature for 1 h before being read on the EnVision reader (Perkin Elmer). Emission ratio signals (520 nm/495 nm) were recorded and utilized to calculate the percent inhibition values based on DMSO and background controls.
(§5) For dose-response analysis, percent inhibition data were plotted vs. compound concentrations, and IC50 values were determined from a 4-parameter robust fit model with the Prism software (GraphPad Software). Results were expressed as pIC50 (negative logarithm of IC50) and subsequently converted to pKi (negative logarithm of dissociation constant, Ki) using the Cheng-Prusoff equation.

JAK3 = JAK3 (Homo sapiens (Human), UniProt P52333); test: Biochemical JAK and Tyk2 kinase assays (LanthaScreen): JAK3; conditions: for Ki / JAK 3 (pKi): 1 h pre-incubation, ATP at Km, pIC50 converted to pKi by Cheng-Prusoff; for Ki: read-out: JAK 3 (pKi) (converted); for JAK3 (pKi)-JAK1 (pKi): difference of pKi values, selectivity JAK3 over JAK1
Protocol: as §2, §3, §4, §5

JAK2 = JAK2 (Homo sapiens (Human), UniProt O60674); test: Biochemical JAK and Tyk2 kinase assays (LanthaScreen): JAK2; conditions: 1 h pre-incubation, ATP at Km, pIC50 converted to pKi by Cheng-Prusoff
Protocol: as §2, §3, §4, §5

Tyk2 = Tyk2 (Homo sapiens (Human), UniProt P29597); test: Biochemical JAK and Tyk2 kinase assays (LanthaScreen): Tyk2; conditions: 1 h pre-incubation, ATP at Km; pIC50 converted to pKi by Cheng-Prusoff
Protocol: as §2, §3, §4, §5

Caco-2 cell monolayers = test: Caco-2 permeation assay; assay type: in vitro ADME, human; conditions: 5 μM, A to B, + Verapamil 25 μM, 120 minutes
Excerpt: Assay 5: Caco-2 Permeation Assay

[2] = test system: IL-2 stimulated pSTAT5 in CD4+ T cells isolated from murine splenocytes (JAK3); test: Inhibition of IL-2 stimulated pSTAT5 in CD4+ T cells isolated from murine splenocytes; assay type: cell-based; conditions: Mus musculus, IL-2 7 ng/ml, read-out: pIC50, inhibition of IL-2 stimulated pSTAT5 (converted)
Protocol: Assay 3: Inhibition of IL-2 Stimulated pSTAT5 in CD4+ T Cells Isolated from Murine Splenocytes
The potency of test compounds for inhibition of interleukin-2 (IL-2) stimulated STATS phosphorylation was measured in the CD4+ T cells isolated from murine splenocytes using AlphaLisa. Because IL-2 signals through JAK3, this assay provides a measure of JAK3 cellular potency in mouse.
as §1
CD4+ T cells were isolated from murine splenocytes via negative selection on a magnetic column (Miltnyi Biotec) and re-suspended in assay media (phenol red-free DMEM (Life Technologies) supplemented with 10% FBS (ATCC)). Cells were seeded at 50,000 cells/well in assay media (2 μL/well). Compounds were serially diluted in DMSO and diluted to 2× final concentration in assay media. Compound was added (4 μl/well) and the cells incubated at 37° C., 5% CO2 for 1 hour, followed by the addition of IL-2 (R&D Systems; final concentration 7 ng/ml) in pre-warmed assay media (2 μL) for 30 minutes. After cytokine stimulation, cells were lysed with 2 μl of 5× AlphaLisa Lysis Buffer (PerkinElmer). The lysate was shaken at 900 rpm for 10 minutes at room temperature (RT). Phosphorylated STATS was measured via the pSTAT5 AlphaLisa kit (PerkinElmer). Freshly prepared acceptor bead mixture was dispensed onto lysate (5 ul) under green filtered <100 lux light. Plates were shaken at 900 rpm for 2 mins, briefly spun down, and incubated for 2 hrs at RT in the dark. Donor beads were dispensed (5 μl) under green filtered <100 lux light. Plates were shaken at 900 rpm for 2 mins, briefly spun down, and incubated overnight at RT in the dark. Luminescence was measured with excitation at 689 nm and emission at 570 nm using an EnVision plate reader (PerkinElmer) under green filtered <100 lux light.
To determine the inhibitory potency of test compounds in response to IL-2, the average emission intensity of beads bound to pSTATS was measured in primary CD4+ T cells isolated from murine splenocytes. IC50 values were determined from analysis of the inhibition curves of signal intensity vs compound concentration. Data are expressed as pIC50 (negative decadic logarithm IC50) values (mean±standard deviation).

Chain of JAK1 (P23458 whole entry): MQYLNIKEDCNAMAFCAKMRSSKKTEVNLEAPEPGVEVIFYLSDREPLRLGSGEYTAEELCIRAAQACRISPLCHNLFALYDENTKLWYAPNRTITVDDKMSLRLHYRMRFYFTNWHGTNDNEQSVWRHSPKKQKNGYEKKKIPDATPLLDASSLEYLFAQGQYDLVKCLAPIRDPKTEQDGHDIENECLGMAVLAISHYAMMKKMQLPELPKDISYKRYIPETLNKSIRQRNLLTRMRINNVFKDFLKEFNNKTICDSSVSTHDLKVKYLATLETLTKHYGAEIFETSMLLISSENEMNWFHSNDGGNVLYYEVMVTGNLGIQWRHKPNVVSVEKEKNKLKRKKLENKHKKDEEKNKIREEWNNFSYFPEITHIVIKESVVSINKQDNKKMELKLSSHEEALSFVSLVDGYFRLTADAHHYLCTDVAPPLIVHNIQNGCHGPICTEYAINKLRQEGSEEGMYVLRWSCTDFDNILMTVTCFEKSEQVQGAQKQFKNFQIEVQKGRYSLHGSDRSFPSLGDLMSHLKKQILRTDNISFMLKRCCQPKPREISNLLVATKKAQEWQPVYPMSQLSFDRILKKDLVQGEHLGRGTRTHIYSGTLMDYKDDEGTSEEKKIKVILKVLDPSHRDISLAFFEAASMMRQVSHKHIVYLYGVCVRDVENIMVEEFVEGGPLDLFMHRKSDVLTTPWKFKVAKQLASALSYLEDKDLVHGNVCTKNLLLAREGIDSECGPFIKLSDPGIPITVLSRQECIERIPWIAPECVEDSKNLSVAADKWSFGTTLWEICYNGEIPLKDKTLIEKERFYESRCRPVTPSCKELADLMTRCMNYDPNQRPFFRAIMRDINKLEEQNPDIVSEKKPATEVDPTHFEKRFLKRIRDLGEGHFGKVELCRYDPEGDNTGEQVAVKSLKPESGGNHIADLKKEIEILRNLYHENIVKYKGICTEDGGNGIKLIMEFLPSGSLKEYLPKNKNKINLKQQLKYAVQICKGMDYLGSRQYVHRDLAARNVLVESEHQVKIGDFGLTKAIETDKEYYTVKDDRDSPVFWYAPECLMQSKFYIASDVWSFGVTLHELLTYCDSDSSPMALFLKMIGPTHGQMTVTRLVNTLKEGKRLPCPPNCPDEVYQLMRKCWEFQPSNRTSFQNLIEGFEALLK
Chain of JAK2 (O60674 whole entry): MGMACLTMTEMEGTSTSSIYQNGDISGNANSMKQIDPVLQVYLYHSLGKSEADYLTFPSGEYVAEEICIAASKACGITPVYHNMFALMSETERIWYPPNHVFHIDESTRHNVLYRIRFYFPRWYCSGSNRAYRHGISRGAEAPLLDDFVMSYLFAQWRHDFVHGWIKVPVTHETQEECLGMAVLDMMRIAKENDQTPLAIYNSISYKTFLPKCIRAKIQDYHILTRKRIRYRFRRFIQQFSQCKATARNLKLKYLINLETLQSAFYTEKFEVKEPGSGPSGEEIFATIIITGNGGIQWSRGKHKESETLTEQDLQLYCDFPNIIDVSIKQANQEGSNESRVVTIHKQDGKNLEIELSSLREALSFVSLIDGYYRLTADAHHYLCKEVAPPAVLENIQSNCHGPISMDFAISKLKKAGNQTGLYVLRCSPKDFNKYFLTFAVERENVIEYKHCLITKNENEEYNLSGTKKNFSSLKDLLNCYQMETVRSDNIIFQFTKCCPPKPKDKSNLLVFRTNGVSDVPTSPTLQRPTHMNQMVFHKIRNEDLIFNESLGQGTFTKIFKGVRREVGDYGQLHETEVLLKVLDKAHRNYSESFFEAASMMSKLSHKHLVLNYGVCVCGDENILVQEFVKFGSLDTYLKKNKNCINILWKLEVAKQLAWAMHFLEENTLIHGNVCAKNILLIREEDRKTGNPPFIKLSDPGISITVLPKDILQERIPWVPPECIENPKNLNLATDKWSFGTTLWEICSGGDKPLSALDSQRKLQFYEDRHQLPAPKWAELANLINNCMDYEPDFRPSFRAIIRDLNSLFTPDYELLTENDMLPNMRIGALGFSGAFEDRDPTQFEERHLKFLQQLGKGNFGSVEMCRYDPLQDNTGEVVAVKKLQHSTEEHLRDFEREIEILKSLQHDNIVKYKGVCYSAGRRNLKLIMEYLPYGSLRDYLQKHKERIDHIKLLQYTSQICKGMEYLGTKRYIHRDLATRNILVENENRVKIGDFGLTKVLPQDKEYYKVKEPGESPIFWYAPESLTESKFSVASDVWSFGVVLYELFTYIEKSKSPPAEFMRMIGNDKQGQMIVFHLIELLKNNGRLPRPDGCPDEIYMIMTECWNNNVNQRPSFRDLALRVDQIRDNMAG
Chain of Tyk2 (P29597 whole entry): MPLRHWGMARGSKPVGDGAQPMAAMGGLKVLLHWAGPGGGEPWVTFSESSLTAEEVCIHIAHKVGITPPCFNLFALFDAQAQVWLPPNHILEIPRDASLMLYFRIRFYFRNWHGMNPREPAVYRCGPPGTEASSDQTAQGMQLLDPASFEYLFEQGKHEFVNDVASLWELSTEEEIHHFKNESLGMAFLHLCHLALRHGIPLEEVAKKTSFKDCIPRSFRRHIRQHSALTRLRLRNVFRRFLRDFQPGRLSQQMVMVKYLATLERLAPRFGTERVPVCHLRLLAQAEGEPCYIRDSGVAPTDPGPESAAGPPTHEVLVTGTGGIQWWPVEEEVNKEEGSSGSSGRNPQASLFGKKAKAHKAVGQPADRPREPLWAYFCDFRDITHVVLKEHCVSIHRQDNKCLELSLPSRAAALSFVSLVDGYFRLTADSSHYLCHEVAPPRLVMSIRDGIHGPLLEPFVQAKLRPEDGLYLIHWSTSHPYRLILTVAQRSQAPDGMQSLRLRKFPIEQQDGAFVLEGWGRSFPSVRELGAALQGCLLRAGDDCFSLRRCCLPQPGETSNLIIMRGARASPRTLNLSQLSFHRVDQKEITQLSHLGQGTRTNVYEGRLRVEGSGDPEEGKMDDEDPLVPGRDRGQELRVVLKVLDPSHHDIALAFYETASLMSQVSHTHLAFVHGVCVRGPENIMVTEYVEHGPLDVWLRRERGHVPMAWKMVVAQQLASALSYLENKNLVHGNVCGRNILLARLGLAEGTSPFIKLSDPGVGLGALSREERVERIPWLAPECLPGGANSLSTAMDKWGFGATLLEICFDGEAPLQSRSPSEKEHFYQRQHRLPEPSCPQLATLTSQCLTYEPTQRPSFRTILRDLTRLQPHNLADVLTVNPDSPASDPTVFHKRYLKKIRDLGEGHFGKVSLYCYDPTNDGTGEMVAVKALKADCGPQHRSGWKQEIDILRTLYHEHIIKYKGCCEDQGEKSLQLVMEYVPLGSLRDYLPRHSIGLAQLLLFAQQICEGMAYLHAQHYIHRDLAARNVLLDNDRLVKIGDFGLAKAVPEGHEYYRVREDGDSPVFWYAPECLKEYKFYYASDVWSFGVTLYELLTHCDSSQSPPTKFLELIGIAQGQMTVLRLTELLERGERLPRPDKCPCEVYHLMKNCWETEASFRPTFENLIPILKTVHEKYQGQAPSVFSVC
Chain of JAK3 (P52333 whole entry): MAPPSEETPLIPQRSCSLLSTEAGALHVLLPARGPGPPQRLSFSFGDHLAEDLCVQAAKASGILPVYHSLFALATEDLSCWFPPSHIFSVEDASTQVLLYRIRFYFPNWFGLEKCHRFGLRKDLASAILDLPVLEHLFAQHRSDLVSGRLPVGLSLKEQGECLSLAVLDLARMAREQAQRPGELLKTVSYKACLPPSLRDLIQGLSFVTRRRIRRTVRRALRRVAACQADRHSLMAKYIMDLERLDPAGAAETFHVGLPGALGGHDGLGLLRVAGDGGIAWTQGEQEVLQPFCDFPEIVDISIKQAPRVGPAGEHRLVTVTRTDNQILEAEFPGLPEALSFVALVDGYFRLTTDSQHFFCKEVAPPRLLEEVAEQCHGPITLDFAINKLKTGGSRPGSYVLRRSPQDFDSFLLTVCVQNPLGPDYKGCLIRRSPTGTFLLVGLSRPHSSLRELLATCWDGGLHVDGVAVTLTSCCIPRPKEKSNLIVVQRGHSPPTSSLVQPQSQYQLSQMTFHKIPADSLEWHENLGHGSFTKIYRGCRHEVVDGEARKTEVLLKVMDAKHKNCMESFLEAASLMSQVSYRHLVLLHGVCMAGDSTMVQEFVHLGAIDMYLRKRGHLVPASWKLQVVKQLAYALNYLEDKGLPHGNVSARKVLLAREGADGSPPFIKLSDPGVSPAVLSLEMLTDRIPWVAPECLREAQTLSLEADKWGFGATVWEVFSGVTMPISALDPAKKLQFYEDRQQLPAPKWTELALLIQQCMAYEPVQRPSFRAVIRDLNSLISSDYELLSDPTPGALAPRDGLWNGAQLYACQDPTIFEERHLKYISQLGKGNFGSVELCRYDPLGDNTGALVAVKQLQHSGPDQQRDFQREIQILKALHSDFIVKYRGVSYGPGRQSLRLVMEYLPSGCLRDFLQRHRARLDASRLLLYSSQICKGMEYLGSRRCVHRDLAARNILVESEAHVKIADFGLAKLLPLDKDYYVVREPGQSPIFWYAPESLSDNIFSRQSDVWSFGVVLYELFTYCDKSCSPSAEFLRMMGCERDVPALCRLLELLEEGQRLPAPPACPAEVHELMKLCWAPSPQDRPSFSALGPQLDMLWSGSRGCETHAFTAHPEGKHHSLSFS

Row | SMILES | IC50 [1] | JAK 1 (pKi) (JAK1) | Ki (JAK3) | JAK3 (pKi)-JAK1 (pKi) (JAK3) | JAK 2 (pKi) (JAK2) | Tyk 2 (pKi) (Tyk2) | Caco Kp 10^−6 cm/sec (Caco-2 cell monolayers) | IC50 [2] | JAK 3 (pKi) (JAK3) | Ki (JAK2; read-out: JAK 2 (pKi) (converted))
1 | C=CC(=O)N1CCC(COc2cc(-c3ccc(O)cc3)cn3cncc23)CC1 [Example 2, 1-(4-(((6-(4-hydroxyphenyl)imidazo[1,5-a]pyridin-8-yl)oxy)methyl)piperidin-1-yl)prop-2-en-1-one] | 200 to 1000 nM | E (E represents a pKi value of 7 or below (Ki of 100 nM or above)) | 0.1 to 1 nM | A (A represents a value of 3 or above) | E (E represents a pKi value of 7 or below (Ki of 100 nM or above)) | E (E represents a pKi value of 7 or below (Ki of 100 nM or above)) | C (C represents a value between 10×10^−6 and 25×10^−6 cm/sec) |  |  | 
2 | C=CC(=O)N1CC(COc2nc(-c3ccc(O)cc3)cn3cncc23)C1 [Example 6, 1-(3-(((6-(4-hydroxyphenyl)imidazo[1,5-a]pyrazin-8-yl)oxy)methyl)azetidin-1-yl)prop-2-en-1-one] | 31.6 to 200 nM | E (E represents a pKi value of 7 or below (Ki of 100 nM or above)) | 0.1 to 1 nM | A (A represents a value of 3 or above) | E (E represents a pKi value of 7 or below (Ki of 100 nM or above)) | E (E represents a pKi value of 7 or below (Ki of 100 nM or above)) | B (B represents a value between 5×10^−6 and 10×10^−6 cm/sec) |  |  | 
3 | C=CC(=O)N1CC(COc2cc(-c3c(F)cc(O)cc3F)cn3cncc23)C1 [Example 7, 1-(3-(((6-(2,6-difluoro-4-hydroxyphenyl)imidazo[1,5-a]pyridin-8-yl)oxy)methyl)azetidin-1-yl)prop-2-en-1-one] | 31.6 to 200 nM | E (E represents a pKi value of 7 or below (Ki of 100 nM or above)) | 0.1 to 1 nM | A (A represents a value of 3 or above) | E (E represents a pKi value of 7 or below (Ki of 100 nM or above)) | E (E represents a pKi value of 7 or below (Ki of 100 nM or above)) | B (B represents a value between 5×10^−6 and 10×10^−6 cm/sec) | < 1000 nM |  | 
4 | C=CC(=O)N1CC(COc2cc(-c3ccc(O)c(F)c3F)cn3cncc23)C1 [Example 8, 1-(3-(((6-(2,3-difluoro-4-hydroxyphenyl)imidazo[1,5-a]pyridin-8-yl)oxy)methyl)azetidin-1-yl)prop-2-en-1-one] | 31.6 to 200 nM | E (E represents a pKi value of 7 or below (Ki of 100 nM or above)) |  | A (A represents a value of 3 or above) | E (E represents a pKi value of 7 or below (Ki of 100 nM or above)) | E (E represents a pKi value of 7 or below (Ki of 100 nM or above)) | B (B represents a value between 5×10^−6 and 10×10^−6 cm/sec) | < 1000 nM | A (A represents a pKi value≥10 (Ki≤0.1 nM)) | 
5 | C=CC(=O)N1CCC(Oc2cc(-c3ccc(O)cc3)cn3cncc23)C(F)(F)C1 (stereo not shown) [Example 14, 1-(3,3-difluoro-4-((6-(4-hydroxyphenyl)imidazo[1,5-a]pyridin-8-yl)oxy)piperidin-1-yl)prop-2-en-1-one] | ≤ 31.6 nM | E (E represents a pKi value of 7 or below (Ki of 100 nM or above)) |  | A (A represents a value of 3 or above) |  | E (E represents a pKi value of 7 or below (Ki of 100 nM or above)) | B (B represents a value between 5×10^−6 and 10×10^−6 cm/sec) |  | A (A represents a pKi value≥10 (Ki≤0.1 nM)) | 10 to 100 nM
6 | C=CC(=O)N1CC(COc2cc(-c3ccc(O)cc3CC)cn3cncc23)C1 [Example 21] | 31.6 to 200 nM | E (E represents a pKi value of 7 or below (Ki of 100 nM or above)) | 0.1 to 1 nM | A (A represents a value of 3 or above) | E (E represents a pKi value of 7 or below (Ki of 100 nM or above)) | E (E represents a pKi value of 7 or below (Ki of 100 nM or above)) | B (B represents a value between 5×10^−6 and 10×10^−6 cm/sec) |  |  | 
7 | C=CC(=O)N1CC(COc2cc(-c3cc(Cl)c(O)c(Cl)c3)cn3cncc23)C1 [Example 33] | 31.6 to 200 nM | E (E represents a pKi value of 7 or below (Ki of 100 nM or above)) |  | A (A represents a value of 3 or above) |  |  | A (A represents a value below 5×10^−6 cm/sec) |  | A (A represents a pKi value≥10 (Ki≤0.1 nM)) | 
